We go through 7 molecules from US20110086759A1, “CHEMICAL COMPOUNDS” (SYNGENTA CROP PROTECTION, INC., priority 2007, published 2011).

Holding throughout (format): in vivo
For assay [1], the system named is Setaria faberi (SETFA). As to the kind of experiment: Post-emergence biological efficacy, glasshouse pot test. As to conditions: 312 h. Put shortly:
(§1)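 Plants were sown in standard soil and grown 8 days in a glasshouse (24/16° C. day/night, 14 hours light, 65% humidity), then sprayed post-emergence at 1000 or 250 g/ha from acetone/water (50:50) with 0.5% Tween 20. Damage was scored visually after 13 days (0 = none, 100 = total).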

Assay [2] has as its system Solanum nigrum (SOLNI). Described as above. To be noted: 312 h. Put shortly: as §1
For assay [3], the system named is Ipomea hederaceae (IPOHE). The assay is described as above. As to conditions: Ipomoea hederacea, 312 h. Put shortly:
as §1

The subject of assay [4] is Alopecurus myosuroides (ALOMY). The assay is described as above. As to conditions: 312 h. Put shortly: as §1
Assay [5] concerns Echinochloa crus-galli (ECHCG). The description is as above. As to conditions: 312 h. Put shortly: as §1
The subject of assay [6] is Amaranthus retoflexus (AMARE). The description is as above. To be noted: Amaranthus retroflexus, 312 h. Put shortly:
as §1

For assay [7], the system named is Setaria faberi (SETFA). As to the kind of experiment: Pre-emergence biological efficacy, glasshouse pot test. To be noted: 312 h. Put shortly: (§2)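 Test compound, formulated in acetone/water (50:50) containing 0.5% Tween 20 and diluted into an aqueous spray, was applied at 1000 or 250 g/ha to pots sown one day earlier. Injury was rated after 13 days, 100 meaning total damage.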

Assay [8] relates to Solanum nigrum (SOLNI). The description is as above. To be noted: 312 h. Put shortly:
as §2

The subject of assay [9] is Ipomea hederaceae (IPOHE). The assay is described as above. To be noted: Ipomoea hederacea, 312 h. Put shortly:
as §2

In assay [10] the test system is Alopecurus myosuroides (ALOMY). Described as above. To be noted: 312 h. Put shortly: as §2
The test system of assay [11] is Echinochloa crus-galli (ECHCG). The assay is described as above. As to conditions: 312 h. Put shortly: as §2
The subject of assay [12] is Amaranthus retoflexus (AMARE). The assay is described as above. To be noted: Amaranthus retroflexus, 312 h. Put shortly: as §2
Setting [13] is: Rate 1,000 g/ha, post-emergence spray, evaluated after 13 days (100=total damage to plant; 0=no damage to plant), read-out: Percentage damage caused to weed species, post-emergence, SETFA.
Setting [14] is: Rate 1,000 g/ha, post-emergence spray, evaluated after 13 days (100=total damage to plant; 0=no damage to plant), read-out: Percentage damage caused to weed species, post-emergence, SOLNI.
Setting [15] is: Rate 1,000 g/ha, post-emergence spray, evaluated after 13 days (100=total damage to plant; 0=no damage to plant), read-out: Percentage damage caused to weed species, post-emergence, IPOHE.
[16] abbreviates: Rate 1,000 g/ha, post-emergence spray, evaluated after 13 days (100=total damage to plant; 0=no damage to plant), read-out: Percentage damage caused to weed species, post-emergence, ALOMY.
The mark [17] stands for this setting: Rate 1,000 g/ha, post-emergence spray, evaluated after 13 days (100=total damage to plant; 0=no damage to plant), read-out: Percentage damage caused to weed species, post-emergence, ECHCG.
Where [18] appears, read: Rate 1,000 g/ha, post-emergence spray, evaluated after 13 days (100=total damage to plant; 0=no damage to plant), read-out: Percentage damage caused to weed species, post-emergence, AMARE.
[19] abbreviates: pre-emergence, rate 1,000 g/ha, evaluated after 13 days (100=total damage to plant; 0=no damage), read-out: Percentage damage caused to weed species, SETFA.
Where [20] appears, read: pre-emergence, rate 1,000 g/ha, evaluated after 13 days (100=total damage to plant; 0=no damage), read-out: Percentage damage caused to weed species, SOLNI.
[21] abbreviates: pre-emergence, rate 1,000 g/ha, evaluated after 13 days (100=total damage to plant; 0=no damage), read-out: Percentage damage caused to weed species, IPOHE.
Where [22] appears, read: pre-emergence, rate 1,000 g/ha, evaluated after 13 days (100=total damage to plant; 0=no damage), read-out: Percentage damage caused to weed species, ALOMY.
The mark [23] stands for this setting: pre-emergence, rate 1,000 g/ha, evaluated after 13 days (100=total damage to plant; 0=no damage), read-out: Percentage damage caused to weed species, ECHCG.
Where [24] appears, read: pre-emergence, rate 1,000 g/ha, evaluated after 13 days (100=total damage to plant; 0=no damage), read-out: Percentage damage caused to weed species, AMARE.
Setting [25] is: post-emergence, 1,000 g/ha, evaluated after 13 days (100=total damage; 0=no damage), read-out: Percentage damage caused to weed species, SETFA.
[26] abbreviates: post-emergence, 1,000 g/ha, evaluated after 13 days (100=total damage; 0=no damage), read-out: Percentage damage caused to weed species, SOLNI.
Setting [27] is: post-emergence, 1,000 g/ha, evaluated after 13 days (100=total damage; 0=no damage), read-out: Percentage damage caused to weed species, IPOHE.
[28] abbreviates: post-emergence, 1,000 g/ha, evaluated after 13 days (100=total damage; 0=no damage), read-out: Percentage damage caused to weed species, ALOMY.
The mark [29] stands for this setting: post-emergence, 1,000 g/ha, evaluated after 13 days (100=total damage; 0=no damage), read-out: Percentage damage caused to weed species, ECHCG.
The mark [30] stands for this setting: post-emergence, 1,000 g/ha, evaluated after 13 days (100=total damage; 0=no damage), read-out: Percentage damage caused to weed species, AMARE.
[31] abbreviates: pre-emergence, 1,000 g/ha, evaluated after 13 days (100=total damage; 0=no damage), read-out: Percentage damage SETFA.
Setting [32] is: pre-emergence, 1,000 g/ha, evaluated after 13 days (100=total damage; 0=no damage), read-out: Percentage damage SOLNI.
The mark [33] stands for this setting: pre-emergence, 1,000 g/ha, evaluated after 13 days (100=total damage; 0=no damage), read-out: Percentage damage IPOHE.
[34] abbreviates: pre-emergence, 1,000 g/ha, evaluated after 13 days (100=total damage; 0=no damage), read-out: Percentage damage ALOMY.
[35] abbreviates: pre-emergence, 1,000 g/ha, evaluated after 13 days (100=total damage; 0=no damage), read-out: Percentage damage ECHCG.
Setting [36] is: pre-emergence, 1,000 g/ha, evaluated after 13 days (100=total damage; 0=no damage), read-out: Percentage damage AMARE.

Take `COC(=O)c1nc(C2CC2)nc(N(CCC#N)Cc2ccco2)c1Cl` [Compound 161-125, 5-Chloro-4-[N-(2-cyanoethyl)-N-furan-2-ylmethyl-amino]-2-cyclo-propyl-6-methoxy-carbonylpyrimidine]: the pest or weed control at 1000 g/ha in the assay on Setaria faberi (SETFA) [1] (setting [13]) worked out at 40%; in the assay with Solanum nigrum (SOLNI) [2] (setting [14]), 50%; in [3] (setting [15]), 40%; in assay [4] (setting [16]) it was 0%; in assay [5] (setting [17]), 10%; in [6] (setting [18]), 80%. Moreover, the pest or weed control at 1000 g/ha in the assay with Setaria faberi (SETFA) [7] (setting [19]) came to 0%; in the assay with Solanum nigrum (SOLNI) [8] (setting [20]) it was 30%; in [9] (setting [21]), 80%; in [10] (setting [22]), 20%; in assay [11] (setting [23]) it was 20%; in [12] (setting [24]) it was 100%.
`COC(=O)c1nc(-c2cc(F)c(Cl)c(F)c2)nc(NCc2ccco2)c1Cl` [Compound 232-48, 5-Chloro-2-(4-chloro-3,5-difluorophenyl)-4-(furan-2-ylmethyl-amino)-6-methoxy-carbonylpyrimidine]: the pest or weed control at 1000 g/ha with Setaria faberi (SETFA) [1] (setting [13]) turned out to be 0%; with Solanum nigrum (SOLNI) [2] (setting [14]) it was 60%; in assay [3] (setting [15]), 10%; in assay [4] (setting [16]), 0%; in assay [5] (setting [17]), 0%; in assay [6] (setting [18]), 20%. Besides, the pest or weed control at 1000 g/ha (in the assay on Setaria faberi (SETFA) [7] (setting [19]); with Solanum nigrum (SOLNI) [8] (setting [20]); in assay [9] (setting [21]); in assay [10] (setting [22]); in assay [11] (setting [23]); in assay [12] (setting [24])) was 0% each time.
As to `COC(=O)c1nc(C2CC2)nc(NCCC(=O)OCc2ccccc2)c1Cl` [Compound 4-266, 5-Chloro-2-cyclopropyl-6-methoxycarbonyl-4-[2-(phenylmethoxy-carbonyl)ethyl-amino]-pyrimidine], the pest or weed control at 1000 g/ha in the assay with Setaria faberi (SETFA) [1] (setting [25]) worked out at 70%; with Solanum nigrum (SOLNI) [2] (setting [26]) it was 80%; in assay [3] (setting [27]) it was 100%; in [4] (setting [28]), 60%; in [5] (setting [29]) it was 50%; in [6] (setting [30]) it was 100%. Also, the pest or weed control at 1000 g/ha in the assay with Setaria faberi (SETFA) [7] (setting [31]) is 60%; in the assay with Solanum nigrum (SOLNI) [8] (setting [32]) it was 100%; in assay [9] (setting [33]), 100%; in assay [10] (setting [34]), 50%; in assay [11] (setting [35]), 60%; in [12] (setting [36]), 100%.
Regarding `COCCN(C/C=C/c1ccco1)c1nc(C2CC2)nc(C(=O)OC)c1Cl` [Compound 160-256, 5-Chloro-2-cyclopropyl-4-[N-(3-furan-2-yl-prop-2-enyl)-N-2-methoxyethyl-amino]-6-methoxycarbonyl-pyrimidine], the pest or weed control at 1000 g/ha with Setaria faberi (SETFA) [1] (setting [13]) is 40%; in the assay on Solanum nigrum (SOLNI) [2] (setting [14]) it was 60%; in [3] (setting [15]) it was 50%; in assay [4] (setting [16]), 0%; in [5] (setting [17]), 0%; in [6] (setting [18]), 90%. Also, the pest or weed control at 1000 g/ha came out at 0% in the assay with Setaria faberi (SETFA) [7] (setting [19]); 10% in the assay on Solanum nigrum (SOLNI) [8] (setting [20]); 10% in assay [9] (setting [21]); 10% in assay [10] (setting [22]); 0% in [11] (setting [23]); 20% in assay [12] (setting [24]).
As for `COC(=O)c1nc(C2CC2)nc(NC(C)c2ccc(Cl)cc2)c1Cl` (stereo not drawn) [Compound 4-176, 5-Chloro-4-[1-(4-chlorophenyl)ethyl-amino]-2-cyclo-propyl-6-methoxy-carbonylpyrimidine], the pest or weed control at 1000 g/ha amounted to 70% with Setaria faberi (SETFA) [1] (setting [25]); 100% with Solanum nigrum (SOLNI) [2] (setting [26]); 100% in [3] (setting [27]); 20% in assay [4] (setting [28]); 50% in assay [5] (setting [29]); 100% in assay [6] (setting [30]). Moreover, the pest or weed control at 1000 g/ha came out at 0% with Setaria faberi (SETFA) [7] (setting [31]); 0% in the assay on Solanum nigrum (SOLNI) [8] (setting [32]); 60% in assay [9] (setting [33]); 0% in [10] (setting [34]); 20% in assay [11] (setting [35]); 50% in [12] (setting [36]).
`COC(=O)c1nc(C2CC2)nc(NCCc2c[nH]c3ccccc23)c1Cl` [Compound 4-226, 5-Chloro-2-cyclopropyl-4-[2-(indol-3-yl)ethylamino]-6-methoxycarbonyl-pyrimidine]: the pest or weed control at 1000 g/ha in the assay with Setaria faberi (SETFA) [1] (setting [25]) amounted to 50%; in the assay on Solanum nigrum (SOLNI) [2] (setting [26]) it was 80%; in assay [3] (setting [27]), 60%; in [4] (setting [28]), 30%; in assay [5] (setting [29]), 10%; in assay [6] (setting [30]) it was 100%. Further, the pest or weed control at 1000 g/ha in the assay with Setaria faberi (SETFA) [7] (setting [31]) is 0%; with Solanum nigrum (SOLNI) [8] (setting [32]) it was 60%; in assay [9] (setting [33]), 100%; in assay [10] (setting [34]), 0%; in assay [11] (setting [35]), 10%; in [12] (setting [36]), 70%.
For the molecule `COC(=O)c1nc(-c2ccc(Cl)c([N+](=O)[O-])c2)nc(NCc2ccco2)c1Cl` [Compound 219-48, 5-Chloro-2-(4-chloro-3-nitrophenyl)-4-(furan-2-yl-methyl-amino)-6-methoxycarbonyl-pyrimidine], the pest or weed control at 1000 g/ha in the assay on Setaria faberi (SETFA) [1] (setting [13]) amounted to 20%; in the assay on Solanum nigrum (SOLNI) [2] (setting [14]) it was 30%; in assay [3] (setting [15]), 0%; in [4] (setting [16]) it was 0%; in assay [5] (setting [17]), 0%; in [6] (setting [18]), 20%. Also, the pest or weed control at 1000 g/ha in the assay with Setaria faberi (SETFA) [7] (setting [19]) is 0%; in the assay with Solanum nigrum (SOLNI) [8] (setting [20]), 0%; in assay [9] (setting [21]), 0%; in [10] (setting [22]), 0%; in assay [11] (setting [23]), 0%; in [12] (setting [24]), 20%.
